Laboratory results reported in the supplement of paper PMC10627819.

Tests used:
S. pneumoniae D39V [1] = assay: fitness (endpoint OD595 vs no drug) (fraction); higher = more growth
Summary of the method: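 Plates with 384 wells were inoculated at OD595 0.01 using 30 µl of TSB, LB Lennox or CY, or 55 µl for S. pneumoniae. Incubation was at 37 °C, with OD595 measured every 30 min for 14 h. Fitness is the stationary-phase transition optical density over the robust mean of no-drug control wells, after first-reading background subtraction; it is capped at 1.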

B. subtilis 168 = assay: Bliss interaction score (quartile over a dose matrix) (fitness difference); higher = more antagonism (negative = synergy)
Summary of the method: (§1)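 Fitness was OD595 at entry into stationary phase divided by the plate's robust no-drug mean and capped at 1; single-drug fitness was inferred from combination data. The Bliss score is observed minus expected (product) fitness, summarised by quartiles over technical, biological and donor/recipient replicates.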

S. aureus DSM 20231 = assay: as above
Summary of the method: as §1

S. aureus Newman = assay: as above
Summary of the method: as §1

S. pneumoniae D39V [2] = assay: as above
Summary of the method: as §1
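Throughout, for Bliss interaction score (quartile over a dose matrix): first quartile when negative (synergy) and third quartile when positive (antagonism).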

CC[C@H]1OC(=O)[C@H](C)[C@@H](O[C@H]2C[C@@](C)(OC)[C@@H](O)[C@H](C)O2)[C@H](C)[C@@H](O[C@@H]2O[C@H](C)C[C@H](N(C)C)[C@H]2O)[C@](C)(OC)C[C@@H](C)C(=O)[C@H](C)[C@@H](O)[C@]1(C)O [Clarithromycin] + O=C1CN(/N=C/c2ccc([N+](=O)[O-])o2)C(=O)N1 [Nitrofurantoin]
fitness, S. pneumoniae D39V [1], one replicate
Settings | first compound 0.007812 µg/mL | first compound 0.01562 µg/mL | first compound 0.03125 µg/mL | first compound 0.0625 µg/mL | first compound 0.125 µg/mL | first compound 0.25 µg/mL
partner 2 µg/mL | 0.879 | 0.802 | 0.627 | – | – | –
partner 4 µg/mL | 0.862 | 0.788 | 0.643 | – | – | –
partner 5.14 µg/mL | – | – | – | 0.402 | 0.214 | 0.146
partner 8 µg/mL | 0.744 | 0.678 | 0.556 | – | – | –

fitness, S. pneumoniae D39V [1]
Settings | first compound 0.0625 µg/mL | first compound 0.07 µg/mL | first compound 0.125 µg/mL | first compound 0.14 µg/mL | first compound 0.25 µg/mL | first compound 0.28 µg/mL
partner 1.285 µg/mL | 0.636 | – | 0.263 | – | 0.104 | –
partner 2 µg/mL | – | 0.0417 | – | 0.0458 | – | 0.0401
partner 2.57 µg/mL | 0.59 | – | 0.199 | – | 0.0984 | –
partner 4 µg/mL | – | 0.0482 | – | 0.0382 | – | 0.0171
partner 8 µg/mL | – | 0.0337 | – | 0.0552 | – | 0.0141

Settings | Bliss interaction score
B. subtilis 168 | -0.0776
S. aureus DSM 20231 | -0.04
S. aureus Newman | -0.117
S. pneumoniae D39V [2] | -0.0986

CC[C@H]1OC(=O)[C@H](C)[C@@H](O[C@H]2C[C@@](C)(OC)[C@@H](O)[C@H](C)O2)[C@H](C)[C@@H](O[C@@H]2O[C@H](C)C[C@H](N(C)C)[C@H]2O)[C@](C)(OC)C[C@@H](C)C(=O)[C@H](C)[C@@H](O)[C@]1(C)O [Clarithromycin] + CC(C1CCC(C(O1)OC2C(CC(C(C2O)OC3C(C(C(CO3)(C)O)NC)O)N)N)N)NC [Gentamicin]
fitness, S. pneumoniae D39V [1], one replicate, main component drawn
Settings | first compound 0.007812 µg/mL | first compound 0.01562 µg/mL | first compound 0.03125 µg/mL
partner 2 µg/mL | 0.876 | 0.84 | 0.63
partner 4 µg/mL | 0.873 | 0.878 | 0.651
partner 8 µg/mL | 0.885 | 0.842 | 0.645

fitness, S. pneumoniae D39V [1], main component drawn
Settings | first compound 0.0625 µg/mL | first compound 0.07 µg/mL | first compound 0.125 µg/mL | first compound 0.14 µg/mL | first compound 0.25 µg/mL | first compound 0.28 µg/mL
partner 2 µg/mL | 0.45 | 0.146 | 0.228 | 0.0838 | 0.0804 | 0.0949
partner 4 µg/mL | 0.447 | 0.144 | 0.206 | 0.0957 | 0.0925 | 0.0738
partner 8 µg/mL | 0.349 | 0.195 | 0.169 | 0.132 | 0.104 | 0.0605

main component drawn
Settings | Bliss interaction score
B. subtilis 168 | 0.0895
S. aureus DSM 20231 | 0.12
S. aureus Newman | 0.108
S. pneumoniae D39V [2] | -0.06
